Our source for the activity and IC50 values is ChEMBL document CHEMBL4007467, “Effects of 6-paradol, an unsaturated ketone from gingers, on cytochrome P450-mediated drug metabolism” (Bioorg Med Chem Lett, 2017).

What all share (assay type): ADME
One data set has as its target T1, CYP1A2 (Homo sapiens, UniProt P05177).
T1 sequence (P05177 whole entry): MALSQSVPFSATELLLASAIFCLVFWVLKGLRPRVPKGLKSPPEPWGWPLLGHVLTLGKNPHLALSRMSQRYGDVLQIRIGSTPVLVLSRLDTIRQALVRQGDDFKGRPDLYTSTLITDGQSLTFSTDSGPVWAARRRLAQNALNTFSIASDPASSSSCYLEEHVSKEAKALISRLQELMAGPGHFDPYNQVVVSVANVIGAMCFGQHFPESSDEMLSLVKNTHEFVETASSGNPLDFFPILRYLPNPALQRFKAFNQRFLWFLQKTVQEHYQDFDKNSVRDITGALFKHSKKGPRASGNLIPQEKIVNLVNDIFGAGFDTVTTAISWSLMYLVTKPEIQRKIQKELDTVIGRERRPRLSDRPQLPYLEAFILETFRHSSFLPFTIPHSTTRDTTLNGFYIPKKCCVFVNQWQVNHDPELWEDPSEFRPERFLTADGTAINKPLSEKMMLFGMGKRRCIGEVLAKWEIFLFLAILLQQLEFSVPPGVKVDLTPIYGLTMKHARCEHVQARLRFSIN
Kind of data set: Inhibition of CYP1A2 in human liver microsomes assessed as enzyme-mediated metabolite formation at 0.1 uM using phenacetin as substrate incubated for 5 mins followed by NADPH addition measured after 30 mins by LC-MS/MS analysis relative to control. To be noted: probe phenacetin, read-out: Activity. Set-up: scale not given: the % may be the effect or the level left.

A further data set deals with T2, CYP2A6 (Homo sapiens, UniProt P11509).
T2 sequence (P11509 whole entry): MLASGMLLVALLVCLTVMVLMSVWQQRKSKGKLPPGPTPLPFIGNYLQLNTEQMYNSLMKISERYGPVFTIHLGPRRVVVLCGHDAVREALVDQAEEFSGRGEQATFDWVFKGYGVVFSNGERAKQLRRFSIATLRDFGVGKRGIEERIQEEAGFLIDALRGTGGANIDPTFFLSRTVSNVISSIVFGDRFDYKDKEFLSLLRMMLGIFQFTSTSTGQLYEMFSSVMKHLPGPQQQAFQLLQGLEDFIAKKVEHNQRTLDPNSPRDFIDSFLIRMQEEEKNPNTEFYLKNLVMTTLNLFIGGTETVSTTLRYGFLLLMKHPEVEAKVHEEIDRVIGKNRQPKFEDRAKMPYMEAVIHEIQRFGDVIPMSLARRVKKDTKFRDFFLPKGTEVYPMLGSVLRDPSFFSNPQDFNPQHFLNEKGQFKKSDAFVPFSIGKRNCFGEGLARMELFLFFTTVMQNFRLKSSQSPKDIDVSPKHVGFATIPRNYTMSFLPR
The experiment in a line: Inhibition of CYP2A6 in human liver microsomes assessed as enzyme-mediated metabolite formation at 10 uM using coumarin as substrate incubated for 5 mins followed by NADPH addition measured after 30 mins by LC-MS/MS analysis relative to control. Details: scale not given: the % may be the effect or the level left. The note with it: probe coumarin, read-out: Activity.

The target in another data set is CYP3A4 (Homo sapiens, UniProt P08684). Kind of data set: Inhibition of CYP3A4 in human liver microsomes assessed as enzyme-mediated metabolite formation at 1 uM using midazolam as substrate incubated for 5 mins followed by NADPH addition measured after 30 mins by LC-MS/MS analysis relative to control. Set-up: scale not given: the % may be the effect or the level left. The note with it: probe midazolam, read-out: Activity.
CYP3A4, sequence (P08684 whole entry): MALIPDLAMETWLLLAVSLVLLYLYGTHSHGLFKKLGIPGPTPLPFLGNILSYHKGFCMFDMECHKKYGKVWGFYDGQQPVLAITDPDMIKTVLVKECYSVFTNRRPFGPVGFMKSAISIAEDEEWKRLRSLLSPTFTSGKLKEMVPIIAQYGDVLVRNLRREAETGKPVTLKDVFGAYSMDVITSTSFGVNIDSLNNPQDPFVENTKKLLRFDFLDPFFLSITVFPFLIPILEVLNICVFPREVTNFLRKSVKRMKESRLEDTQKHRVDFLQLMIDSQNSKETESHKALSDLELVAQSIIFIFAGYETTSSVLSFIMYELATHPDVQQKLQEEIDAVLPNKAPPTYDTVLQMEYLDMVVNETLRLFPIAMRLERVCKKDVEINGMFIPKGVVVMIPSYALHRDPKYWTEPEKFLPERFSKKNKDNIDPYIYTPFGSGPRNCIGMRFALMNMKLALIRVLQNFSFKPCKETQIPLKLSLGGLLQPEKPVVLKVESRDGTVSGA

A further data set deals with T3, Cytochrome P450 1A2 (Homo sapiens, UniProt P05177).
T3 sequence (P05177 whole entry): T1 sequence (P05177 whole entry)
The experiment in a line: Inhibition of CYP1A2 in human liver microsomes using phenacetin as substrate preincubated for 20 mins followed by substrate addition measured after 30 mins in presence of NADPH by LC-MS/MS analysis.

The target in data set [1] is T4, CYP2B6 (Homo sapiens, UniProt P20813).
T4 sequence (P20813 whole entry): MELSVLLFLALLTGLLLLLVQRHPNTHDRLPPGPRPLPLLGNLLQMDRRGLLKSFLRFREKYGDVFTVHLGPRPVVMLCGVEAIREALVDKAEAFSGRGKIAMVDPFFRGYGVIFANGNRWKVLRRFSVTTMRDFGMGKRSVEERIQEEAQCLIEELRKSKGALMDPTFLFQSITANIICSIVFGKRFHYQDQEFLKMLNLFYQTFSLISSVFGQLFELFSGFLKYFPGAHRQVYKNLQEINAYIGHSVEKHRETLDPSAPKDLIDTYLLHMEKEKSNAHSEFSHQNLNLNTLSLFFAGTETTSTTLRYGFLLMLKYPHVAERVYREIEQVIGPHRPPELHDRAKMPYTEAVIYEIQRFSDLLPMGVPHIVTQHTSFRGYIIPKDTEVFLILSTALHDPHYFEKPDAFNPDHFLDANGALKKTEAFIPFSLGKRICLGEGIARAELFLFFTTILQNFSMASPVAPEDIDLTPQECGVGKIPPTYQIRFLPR
Kind of data set: Inhibition of CYP2B6 in human liver microsomes assessed as enzyme-mediated metabolite formation at 0.3 uM using bupropion as substrate preincubated for 20 mins followed by substrate addition measured after 30 mins in presence of NADPH by LC-MS/MS analysis relative to control. To be noted: probe bupropion, read-out: Activity. Set-up: scale not given: the % may be the effect or the level left.

For data set [2], the target named is T4, CYP2B6. The experiment in a line: Inhibition of CYP2B6 in human liver microsomes assessed as enzyme-mediated metabolite formation at 10 uM using bupropion as substrate preincubated for 20 mins followed by substrate addition measured after 30 mins in presence of NADPH by LC-MS/MS analysis relative to control. The note with it: probe bupropion, read-out: Activity. Details: scale not given: the % may be the effect or the level left.

The next data set concerns the target T5, Cytochrome P450 2B6 (Homo sapiens, UniProt P20813).
T5 sequence (P20813 whole entry): T4 sequence (P20813 whole entry)
The experiment in a line: Inhibition of CYP2B6 in human liver microsomes using bupropion as substrate preincubated for 20 mins followed by substrate addition measured after 30 mins in presence of NADPH by LC-MS/MS analysis.

For data set [3], the target named is T6, CYP2C8 (Homo sapiens, UniProt P10632).
T6 sequence (P10632 whole entry): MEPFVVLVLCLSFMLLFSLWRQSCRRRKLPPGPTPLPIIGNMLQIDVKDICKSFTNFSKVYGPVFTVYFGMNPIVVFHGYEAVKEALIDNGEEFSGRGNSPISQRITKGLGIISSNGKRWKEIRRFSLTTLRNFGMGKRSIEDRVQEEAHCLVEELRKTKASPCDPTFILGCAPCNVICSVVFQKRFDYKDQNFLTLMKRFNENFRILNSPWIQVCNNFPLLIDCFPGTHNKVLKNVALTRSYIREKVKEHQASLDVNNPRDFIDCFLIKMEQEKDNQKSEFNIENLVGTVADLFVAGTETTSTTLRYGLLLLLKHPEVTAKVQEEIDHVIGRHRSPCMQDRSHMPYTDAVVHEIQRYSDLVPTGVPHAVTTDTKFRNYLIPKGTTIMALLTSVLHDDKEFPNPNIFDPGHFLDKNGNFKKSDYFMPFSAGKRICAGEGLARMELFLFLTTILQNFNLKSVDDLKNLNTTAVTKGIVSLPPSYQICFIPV
Kind of data set: Inhibition of CYP2C8 in human liver microsomes assessed as enzyme-mediated metabolite formation at 0.3 uM using paclitaxel as substrate preincubated for 20 mins followed by substrate addition measured after 30 mins in presence of NADPH by LC-MS/MS analysis relative to control. Details: scale not given: the % may be the effect or the level left. The note with it: probe paclitaxel, read-out: Activity.

The target in data set [4] is T6, CYP2C8. Kind of data set: Inhibition of CYP2C8 in human liver microsomes assessed as enzyme-mediated metabolite formation at 30 uM using paclitaxel as substrate preincubated for 20 mins followed by substrate addition measured after 30 mins in presence of NADPH by LC-MS/MS analysis relative to control. Set-up: scale not given: the % may be the effect or the level left. To be noted: probe paclitaxel, read-out: Activity.

For the compound `CCCCCCCC(=O)CCc1ccc(O)c(OC)c1`, the activity at 0.5 h, 0.1 µM on CYP1A2 stood at 100%. Besides, the activity at 0.5 h, 10 µM was 81.5% at CYP2A6 and 54.3% at CYP2B6 [2]. The activity at 0.5 h, 1 µM on CYP3A4 was 88.5%. Also, the 50% inhibitory concentration (IC50) at Cytochrome P450 1A2 is 19.6 µM; at Cytochrome P450 2B6, 6.3 µM. The activity at 0.5 h, 0.3 µM at CYP2B6 [1] was determined as 81.3%; at CYP2C8 [3], 77.2%. In addition, the activity at 0.5 h, 30 µM on CYP2C8 [4] was determined as 40.2%.
